Measured values taken from ChEMBL document CHEMBL1151087, “N-sulfonyl derivatives of 6,7-dichloro 3,4-dihydro-3-oxo-quinoxalinecarboxylate as glycine-site NMDA and AMPA antagonists” (Bioorg Med Chem Lett, 1993).

Legend:
[1] = Partition coefficient was measured using a shake flask method with octanol/buffer at physiological pH; type: physicochemical
Rattus norvegicus = species on record: Rattus norvegicus; assay: Tested for the ability to suppress the spontaneous epileptiform discharge rate in a cortical wedge model; type: functional, organism-based
[2] = target: Glutamate [NMDA] receptor; assay: Tested for the affinity to the glycine site -NMDA receptor using [3H]Gly as radioligand.; type: protein-complex assay
[3] = target: Glutamate receptor ionotropic AMPA (Homo sapiens, UniProt P42261+P42262+P42263+P48058)
Description: Tested for the affinity to the Ionotropic glutamate receptor AMPA using [3H]-AMPA as radioligand

logD [1]	IC50 (Rattus norvegicus)	IC50 [2]	IC50 [3]	SMILES
0.15	11 µM	0.12 µM	4.3 µM	O=C(NS(=O)(=O)c1ccccc1)c1nc2cc(Cl)c(Cl)cc2[nH]c1=O
-1.1	11 µM	0.36 µM	14 µM	CS(=O)(=O)NC(=O)c1nc2cc(Cl)c(Cl)cc2nc1O
-1	–	0.46 µM	6.7 µM	O=C(O)c1nc2cc(Cl)c(Cl)cc2nc1O [6,7-DICHLORO-3-HYDROXY-2-QUINOXALINECARBOXYLIC ACID]
0.09	–	0.84 µM	0.2 µM	O=c1[nH]c2cc([N+](=O)[O-])c([N+](=O)[O-])cc2[nH]c1=O [DNQX]
–	–	> 100 µM	–	NS(=O)(=O)c1cccc2c1c([N+](=O)[O-])cc1nc(O)c(O)nc12 [NBQX]

SMILES	logD [1]	IC50 (Rattus norvegicus)	IC50 [2]	IC50 [3]
O=C(O)c1cc(O)c2c(Cl)cc(Cl)cc2n1	-0.56	5 µM	0.068 µM	> 100 µM
